Converted amounts (≈) assume the structure as drawn. “And” between values parts separate entries of the source, which are not always exact repeats. Identical values can stand only once. Like-named read-outs stand apart in the source and are kept apart here.
Legend:
[1] = tested on: P. berghei ANKA GFP-Luc-SMcon sporozoites; assay: P. berghei-luciferase liver stage bioluminescence assay (causal prophylactic mode) in HepG2-CD81 cells; format: cell-based, Plasmodium berghei; conditions: for Emax: 48 h, read-out: P.berghei-Luciferase Liver Stage Bioluminescence Assay: Maximum measured (%)
Protocol: (§1) Briefly, HepG2-CD81 cells were seeded into 1,536 well plates containing 50 nL of test and control compounds diluted into DMSO. […] Next, 2 μL of luciferin reagent (Promega BrightGlo) was added to each well and luciferase activity was detected using a Perkin Elmer Envision plate reader. […] In parallel, plates were processed without sporozoites for HepG2 toxicity measurements.
(§2) In continuation of the transmission blocking theme, it is important to establish activities against liver stage parasites. […] This assay uses ultra-high-throughput screening methods optimized for a 1536-well format and a HepG2 human hepatoma cell line. […] To establish selectivity of the compounds for the parasite in the liver stage of infection, cytotoxicity was determined by measuring bioluminescence from the reaction between free ATP of compound-treated, uninfected hepatocytes and a luciferase reporter system.

[2] = HepG2 cytotoxicity bioluminescence assay (CellTiterGlo, ATP); format: cell-based, human; conditions: human, uninfected HepG2-CD81 cells; for IC50 at 72 h: two biological replicates listed in one cell; for EC50 at 72 h: uninfected HepG2, ATP bioluminescence
Protocol: as §1, §2

HepG2 cells = assay: as above; format: cell-based, human; conditions: for HepG2 cytotoxicity IC50 (in words): at 25 μM (artemiside 7) and 50 μM (artemisone 8); for IC50 / HepG2 Cytotoxicity Bioluminescence Assay: Maximum measured (%): two biological replicates listed in one cell
Protocol: as §1, §2

P. falciparum W2 [3] = assay: T0 [3H]-hypoxanthine drug susceptibility assay; format: cell-based; conditions: Plasmodium falciparum; for IC50: W2, read-out: W2 IC50; for IC90: W2, read-out: W2 IC90
[4] = tested on: P. falciparum ARC08-22 (4G); assay: T0 [3H]-hypoxanthine drug susceptibility assay, artemisinin-resistant clone (C580Y); format: cell-based, Plasmodium falciparum; conditions: preliminary, W2 as comparative sensitive strain
[5] = tested on: P. falciparum PL08-009 (5C); assay: as above; format: cell-based, Plasmodium falciparum; conditions: preliminary, W2 as comparative sensitive strain
P. falciparum NF54 [6] = tested on: P. falciparum NF54; set-up: method as in Coertzen et al. (2018); conditions: pLDH, 48 h; ref Coertzen et al. (2018); read-out: Metabolic IC50 NF54; cited from earlier work
P. falciparum Dd2 = tested on: P. falciparum Dd2; set-up: method as in Coertzen et al. (2018); conditions: pLDH, 48 h; ref Coertzen et al. (2018); read-out: Metabolic IC50 Dd2; cited from earlier work
P. falciparum NF54 [7] = tested on: P. falciparum NF54; set-up: method as in Coertzen et al. (2018); conditions: SYBR Green I; ref Coertzen et al. (2018); read-out: Proliferative IC50 NF54; cited from earlier work
P. falciparum K1 = tested on: P. falciparum K1; set-up: method as in Coertzen et al. (2018); conditions: SYBR Green I; ref Coertzen et al. (2018); read-out: Proliferative IC50 K1; cited from earlier work
P. falciparum W2 [8] = tested on: P. falciparum W2; set-up: method as in Coertzen et al. (2018); conditions: SYBR Green I; ref Coertzen et al. (2018); read-out: Proliferative IC50 W2; cited from earlier work
[9] = tested on: P. falciparum NF54 early stage gametocytes (>90% stage I–III); set-up: method as in Coertzen et al. (2018); conditions: read-out: Early Stage (EG, Luc 48 h) IC50; >90% stage I–III gametocytes; ref Coertzen et al. (2018); cited from earlier work
[10] = tested on: P. falciparum NF54 late stage gametocytes (>90% stage IV and V); set-up: method as in Coertzen et al. (2018); conditions: read-out: Late Stage (LG, Luc 72 h) IC50; >90% stage IV and V gametocytes; ref Coertzen et al. (2018); cited from earlier work
[11] = tested on: Chinese hamster ovarian (CHO) cells; conditions: read-out: Cytotoxicity EC50 CHO; MTT assay; ref Coertzen et al. (2018); cited from earlier work
[12] = tested on: Pf CamWT, Cam3.II, CamWTC580Y, Cam3.IIC580Y, Cam3.IIRev; set-up: method as in Lanteri et al., 2014; conditions: ref Lanteri et al., 2014; read-out: mean IC50 across CamWT, Cam3.II and K13 transfected strains; cited from earlier work
P. falciparum W2 [13] = tested on: P. falciparum W2; set-up: method as in Lanteri et al., 2014; conditions: ref Lanteri et al., 2014; read-out: mean IC50 against W2; cited from earlier work
[14] = set-up: method as in Haynes et al., 2006; conditions: ref Haynes et al., 2006; cited from earlier work
[15] = Plasmodium berghei, two biological replicates listed in one cell
[16] = Plasmodium berghei, HepG2, 48 h, liver stage, HepG2 host cells, luciferase after 48 h, ±SD, read-out: P. berghei sporozoites IC50
[17] = Plasmodium berghei, two biological replicates listed in one cell, read-out: P.berghei-Luciferase Liver Stage Bioluminescence Assay: IC50

Row | SMILES | Emax [1, 15] | IC50 [1, 16] | IC50 [1, 17] | IC50 at 72 h [2] | EC50 at 72 h [2] | HepG2 cytotoxicity IC50 (in words) (HepG2 cells) | IC50 (HepG2 cells) | IC50 (P. falciparum W2 [3]) | IC90 (P. falciparum W2 [3]) | susceptibility of ARC08-22 (4G) clone (in words) [4] | susceptibility of PL08-009 (5C) clone (in words) [5] | IC50 (P. falciparum NF54 [6]) | IC50 (P. falciparum Dd2) | IC50 (P. falciparum NF54 [7]) | IC50 (P. falciparum K1) | IC50 (P. falciparum W2 [8]) | IC50 [9] | IC50 [10] | EC50 [11] | IC50 [12] | other results
1 | C[C@H]1[C@H](N2CCSCC2)O[C@@H]2O[C@@]3(C)CC[C@H]4[C@H](C)CC[C@@H]1[C@@]24OO3 [Artemiside 7, artemiside] | 98.1% | 81.3 ± 9.62 nM | 74.5 nM | > 25000 nM | > 25000 nM | no measurable IC50 values | > 25000 nM | 2.21 ± 0.42 nM | 4.28 ± 0.25 nM | no indication of reduced susceptibility | no indication of reduced susceptibility | 6 ± 1.8 nM | 8.2 ± 1.4 nM | 1.11 ± 0.17 nM | 1.6 ± 0.4 nM | 1.75 ± 0.27 nM | 16.4 ± 1 nM | 1.5 ± 0.5 nM | > 271000 nM | – | inhibition at 5 µM ([1]; Plasmodium berghei, Conc. 5 μM, read-out: P. berghei sporozoites Maximum inhibition %): 99 ± 1.34%; IC50 ([1]; two biological replicates listed in one cell, listed as 7 Artemiside (GC008), read-out: P.berghei-Luciferase Liver Stage Bioluminescence Assay: IC50): 88.1 nM; HepG2 Cytotoxicity Bioluminescence Assay: Maximum measured (%) (HepG2 cells; listed as 7 Artemiside (GC008)): 30.4% and 36.5%
2 | C[C@H]1[C@H](N2CCS(=O)(=O)CC2)O[C@@H]2O[C@@]3(C)CC[C@H]4[C@H](C)CC[C@@H]1[C@@]24OO3 [Artemisone 8, artemisone] | 92.1% | 28 nM | 27.4 nM | > 50000 nM | > 50000 nM | no measurable IC50 values | > 50000 nM | 1.69 ± 0.36 nM | 3.42 ± 0.45 nM | no indication of reduced susceptibility | no indication of reduced susceptibility | 3 ± 0.8 nM | 2.7 ± 0.3 nM | 1.2 ± 0.4 nM | 1.01 ± 0.19 nM | 1.6 ± 0.4 nM | 1.94 ± 0.11 nM | 42.4 ± 3.3 nM | > 249000 nM | 2.4 nM | inhibition at 10 µM ([1]; Plasmodium berghei, read-out: P. berghei sporozoites Maximum inhibition %): 93.3 ± 1.76%; inhibition of liver stage parasites ([1]; maintained down to 3 μM, 12-point titrations starting from 10 μM and […]): > 75%; IC50 ([1]; read-out: P. berghei sporozoites IC50, liver stage, HepG2 host cells, luciferase after 48 h, ±SD): 28.3 ± 1.27 nM; IC50 ([1]; two biological replicates listed in one cell, listed as 8 Artemisone (GC003), read-out: P.berghei-Luciferase Liver Stage Bioluminescence Assay: IC50): 29.2 nM; HepG2 Cytotoxicity Bioluminescence Assay: Maximum measured (%) (HepG2 cells; listed as 8 Artemisone (GC003)): 11.8% and 16.0%; IC50 (P. falciparum W2 [13]): 1.9 nM
3 | CC1CCC2C(C)C(NS(N)(=O)=O)OC3OC4(C)CCC1C32OO4 (centres unmarked) [Sulfamide 11] | – | – | – | – | – | – | – | 4.87 ± 0.59 nM | 7.53 ± 0.23 nM | – | – | 10.9 ± 3.4 nM | 16.9 ± 2.6 nM | 3 ± 1 nM | 1.78 ± 0.26 nM | 2.04 ± 0.11 nM | 15 ± 2 nM | 419 ± 59.5 nM | 56000 ± 4600 nM | – | water solubility [14]: 294 µg/mL (≈ 811 µM)
4 | C[C@H]1[C@@H](O)O[C@@H]2O[C@@]3(C)CC[C@H]4[C@H](C)CC[C@@H]1[C@@]24OO3 [DHA 2, dihydroartemisinin] | – | – | – | – | – | – | – | 4.58 ± 2.54 nM | 10.3 ± 5.76 nM | – | – | 0.8 ± 0.1 nM | 5.7 ± 2 nM | 2.51 ± 0.19 nM | 1.51 ± 0.33 nM | 1.74 ± 0.22 nM | 43 ± 3.9 nM | 33.7 ± 1.98 nM | 25200 nM | 11.2 nM | IC50 (P. falciparum W2 [13]): 5.2 nM

Reference: paper PMC6967409 (Frontiers in Chemistry, 2020)
